Measured values as given in the supplement of paper PMC8882468.

Columns and labels:
Assay in all cases: CTG-3D luminescence at 96 h relative to day-0 seeding control (ratio to day 0); higher = more growth / less cytotoxicity; PDxO 3D drug screen (set 2), 96 h, CTG-3D normalised to day-0 seeding control.
HCI-010 = system: HCI-010 (organoid from a breast cancer xenograft)
HCI-003.E2 = system: HCI-003.E2 (organoid from an ER-positive breast cancer xenograft)
HCI-017.E2 = system: HCI-017.E2 (organoid from an ER-positive breast cancer xenograft)
HCI-005.E2 = system: HCI-005.E2 (organoid from a breast cancer xenograft with a HER2-positive history)
HCI-027 = system: HCI-027 (organoid from a triple-negative breast cancer xenograft)
HCI-016 = system: HCI-016 (organoid from a triple-negative breast cancer xenograft)

CO[C@H]1C[C@@H]2CC[C@@H](C)[C@@](O)(O2)C(=O)C(=O)N2CCCC[C@H]2C(=O)O[C@H]([C@H](C)C[C@@H]2CC[C@@H](O)[C@H](OC)C2)CC(=O)[C@H](C)/C=C(\C)[C@@H](O)[C@@H](OC)C(=O)[C@H](C)C[C@H](C)/C=C/C=C/C=C/1C [rapamycin]
CTG-3D luminescence at 96 h
Conditions	12.5 pM	0.00025 µM	0.005 µM	0.1 µM	1 µM	10 µM	100 µM	625 fM
HCI-010, days in culture: 79	1.09	1.02	1.11	1.13	0.996	0.98	0.00731	1.13
HCI-010, days in culture: 86	1.91	1.75	1.61	1.37	1.45	1.46	0.0226	2.35
HCI-010, days in culture: 102	0.91	0.799	0.831	0.806	0.875	0.636	0.00488	0.865
HCI-010, days in culture: 164	1.39	1.27	1.02	0.996	1.17	0.924	0.0097	1.26
HCI-016, days in culture: 305	1.79	1.77	1.74	4.51	1.66	1.4	0.0174	3.16
HCI-016, days in culture: 327	0.432	0.896	2.06	1.99	0.951	1.2	0.023	0.782
HCI-016, days in culture: 341	1.45	1.24	1.81	1.73	1.34	1.81	0.00758	1.9
HCI-016, days in culture: 397	1.84	1.69	1.26	1.35	1.52	1.39	0.0166	1.94
HCI-017.E2, days in culture: 85	2.2	1.67	1.47	1.51	1.34	1.31	0.0123	2.57
HCI-027, days in culture: 145	1.48	1.37	1.25	1.15	1.16	0.781	0.00647	1.5
HCI-027, days in culture: 158	1.19	1.63	1.42	2.35	1.1	2.43	0.0139	4.51
HCI-027, days in culture: 164	3.14	1.63	2.5	1.4	1.59	1.86	0.0163	1.82
HCI-027, days in culture: 176	3.28	2.48	0.934	2.11	1.69	1.25	0.00482	2.21
HCI-027, days in culture: 186	1.07	0.887	1.74	1.07	0.381	1.97	0.00722	0.992

CTG-3D luminescence at 96 h
Conditions	12.5 pM	0.00025 µM	0.005 µM	0.1 µM	1 µM	10 µM	100 µM	625 fM
HCI-003.E2	1.08	1.04	0.947	0.798	1.03	0.994	0.0195	1.32
HCI-005.E2	1.21	1.28	1.46	1.72	1.73	1.49	0.0167	1.52
HCI-017.E2	1.41	1.88	1.61	1.58	1.56	1.63	0.0217	1.583

CC(=O)O[C@@]12CO[C@@H]1C[C@H](O)[C@@]1(C)C(=O)[C@H](O)C3=C(C)[C@@H](OC(=O)[C@H](O)[C@@H](NC(=O)OC(C)(C)C)c4ccccc4)C[C@@](O)([C@@H](OC(=O)c4ccccc4)[C@H]21)C3(C)C [docetaxel]
CTG-3D luminescence at 96 h
Conditions	12.5 pM	0.00025 µM	0.005 µM	0.1 µM	1 µM	10 µM	100 µM	625 fM
HCI-010, days in culture: 79	1.26	1.41	1.14	0.967	0.815	0.987	0.000117	1.74
HCI-010, days in culture: 86	2.16	2.35	2.01	0.907	0.734	0.847	0.00279	2.24
HCI-010, days in culture: 102	1.2	0.987	0.747	0.491	0.519	0.375	0.00091	1.07
HCI-010, days in culture: 164	1.68	1.45	1.1	0.611	0.719	0.646	0.00438	1.43
HCI-016, days in culture: 305	1.51	1.9	1.03	1.42	0.985	0.955	0.0636	1.77
HCI-016, days in culture: 327	0.628	0.252	0.393	0.838	0.432	0.497	0.0762	0.906
HCI-016, days in culture: 341	1.18	1.18	0.786	0.962	0.862	0.954	0.11	1.59
HCI-016, days in culture: 397	1.74	1.18	0.667	0.792	0.484	0.997	0.19	2.27
HCI-017.E2, days in culture: 85	2.47	1.92	0.986	0.975	0.797	0.598	0.154	2.7
HCI-027, days in culture: 145	1.01	0.93	0.832	0.862	0.922	0.849	0.15	1.06
HCI-027, days in culture: 158	2.07	2.12	1.05	0.461	1.19	2.61	0.153	3.28
HCI-027, days in culture: 164	2.42	1.32	0.405	0.525	0.555	0.505	0.117	1.04
HCI-027, days in culture: 176	3.89	2.21	0.338	0.629	0.457	0.475	0.0832	2.73
HCI-027, days in culture: 186	1.45	1.25	0.855	0.693	0.469	0.451	0.0466	2.08

CTG-3D luminescence at 96 h
Conditions	12.5 pM	0.00025 µM	0.005 µM	0.1 µM	1 µM	10 µM	100 µM	625 fM
HCI-003.E2	0.748	0.702	0.684	0.627	0.599	0.261	0.0093	0.993
HCI-005.E2	1.75	1.98	2.07	2.26	2.22	1.75	0.813	2.5
HCI-017.E2	1.34	1.47	1.2	1.36	1.14	0.78	0.13	1.38

COc1cccc2c1C(=O)c1c(O)c3c(c(O)c1C2=O)C[C@@](O)(C(=O)CO)C[C@@H]3O[C@H]1C[C@H](N)[C@@H](O)[C@H](C)O1 [epirubicin]
CTG-3D luminescence at 96 h
Conditions	12.5 pM	0.00025 µM	0.005 µM	0.1 µM	1 µM	10 µM	100 µM	625 fM
HCI-010, days in culture: 79	1.82	1.96	2.1	0.453	0.114	0.0313	-0.00605	2.12
HCI-010, days in culture: 86	1.93	2.45	2.56	0.972	0.179	0.0423	-0.00278	2.25
HCI-010, days in culture: 102	1.1	1.22	1.01	0.19	0.064	0.0201	-0.000814	0.986
HCI-010, days in culture: 164	1.68	1.75	1.67	0.67	0.214	0.0976	-0.00123	1.45
HCI-016, days in culture: 305	2.91	3.05	3.17	1.79	0.0989	0.0325	-0.0142	3.33
HCI-016, days in culture: 327	0.93	0.767	0.985	1.49	0.0556	0.0566	-0.00792	1.16
HCI-016, days in culture: 341	2.05	1.72	2.11	0.986	0.0279	0.103	-0.00358	2.49
HCI-016, days in culture: 397	2	1.81	1.7	0.704	0.0199	0.108	-0.000737	3
HCI-017.E2, days in culture: 85	2.09	2.02	1.7	2.1	0.743	1.02	0.0107	1.92
HCI-027, days in culture: 145	1.6	2.63	1.78	0.146	0.087	0.0692	-0.00274	1.49
HCI-027, days in culture: 158	3.01	2.81	2.46	0.544	0.0846	0.202	-0.00223	4.2
HCI-027, days in culture: 164	2.5	1.5	1.53	0.169	0.142	0.104	-0.00102	3.34
HCI-027, days in culture: 176	3.02	2.26	1.43	0.676	0.0317	0.0395	-0.000121	2.01
HCI-027, days in culture: 186	1.68	0.902	1.46	0.866	0.0439	0.0934	-0.00168	2.13

CTG-3D luminescence at 96 h
Conditions	12.5 pM	0.00025 µM	0.005 µM	0.1 µM	1 µM	10 µM	100 µM	625 fM
HCI-003.E2	2.55	2.48	2.34	2.23	0.712	0.0173	0.000274	3.06
HCI-005.E2	1.54	1.65	1.41	0.977	0.0317	0.00772	-0.000128	1.98
HCI-017.E2	2.04	2.99	2.22	2.13	0.562	1.07	0.00216	2.33
